What was measured:
14-3-3ζ dimer = molecular target: T1, 14-3-3ζ dimer (Bos taurus, UniProt P63103); assay: R18-Sepharose bead competition with Bad derived phosphopeptides for 14-3-3 binding; conditions: 100 nM 14-3-3ζ dimer; FIG. 2
T1 sequence (P63103 1-245): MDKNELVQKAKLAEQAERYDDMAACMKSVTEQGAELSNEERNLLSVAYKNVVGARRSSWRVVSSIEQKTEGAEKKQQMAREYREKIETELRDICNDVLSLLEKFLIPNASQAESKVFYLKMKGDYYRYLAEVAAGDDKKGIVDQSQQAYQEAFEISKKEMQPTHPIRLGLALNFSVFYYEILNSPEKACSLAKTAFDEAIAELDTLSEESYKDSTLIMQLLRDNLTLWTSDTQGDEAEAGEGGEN
Protocol: R18 was covalently coupled to Sepharose beads. The beads were then incubated with 100 nM 14-3-3ζ dimer along with the indicated concentrations of synthetic phosphopeptides derived from Bad. pS136 contains a 14-3-3 binding site, while pS112 is a similar peptide incapable of binding 14-3-3. Unbound 14-3-3 was washed away from the beads and the remaining proteins were visualized by SDS-PAGE and sliver staining. […] See also, Masters et al. (2001) Molecular Pharmacology 60: 1325-1331, herein incorporated by reference.

COS-7 cells [1] = assay: Cisplatin-induced cell death with R18 expression, viability assay; type: cell-based; conditions: myc-tagged R18, cisplatin added 12 hours after transfection, read about 36 hours later; FIG. 11a
Protocol: (§1) Inhibition of 14-3-3/ligand interactions may facilitate apoptotic cell death induced by cytotoxic agents. To test this possibility, the effects of expression of R18 and difopein on cisplatin-induced cell death was examined (FIG. 11). In FIG. 11a, Cos-7 cells were transfected with a lacZ marker gene along with myc-tagged R18 DNA (amount used shown as the fraction of total DNA). 12 hours after transfection, the indicated concentrations of cisplatin were added. Approximately 36 hours later the viability of the cells was determined as in FIG. 3 above. In FIG. 11b, HeLa cervical cancer cells were transfected with EYFP or EYFP-difopein as indicated. 24 hours later, 50 μM cisplatin or vehicle was added. After 24 hours of cisplatin treatment, the cells were assayed as in 2 above.

COS-7 cells [2] = assay: Attachment based viability assay (lacZ marker, β-gal activity); type: cell-based; conditions: expression from transfected vector, FIG. 4, FIG. 8a
Protocol: R18 is placed under the control of the CMV promoter in a mammalian expression vector pCR3.1 (pSCM110). Cells expressing the control pcDNA3 along with a lacZ marker gave high β-gal activity that was set as 100% survival. […] The R18 effect was dose-dependent because increased R18 expression was correlated with decreased cell viability.
In FIG. 8a, Cos-7 cells were co-transfected with myc-tagged difopein or a control vector along with a lacZ reported gene. After approximately 48 hours floating cells were gently washed away and attached cells were lysed and assayed for β-galactosidase.

14-3-3 proteins = conditions: cited from earlier work
COS-7 cells [3] = assay: Annexin V phenotype of R18 induced cell death; type: cell-based; conditions: data not shown
14-3-3ζ/ASK1 = molecular target: T2, 14-3-3ζ/ASK1 (Bos taurus, UniProt P63103); assay: Peptide inhibition of [35S]-ASK1 binding to immobilized His-14-3-3ζ; conditions: FIG. 1
T2 sequence (P63103 1-245): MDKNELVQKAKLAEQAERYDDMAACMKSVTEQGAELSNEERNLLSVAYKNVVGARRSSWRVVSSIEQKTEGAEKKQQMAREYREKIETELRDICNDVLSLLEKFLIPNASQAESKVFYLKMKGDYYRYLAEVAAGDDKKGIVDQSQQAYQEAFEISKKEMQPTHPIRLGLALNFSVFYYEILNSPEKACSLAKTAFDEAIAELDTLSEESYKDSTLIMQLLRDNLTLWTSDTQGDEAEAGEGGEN
Protocol: To determine the effectiveness of various 14-3-3 antagonist, including R18, S-Raf259, and pS-Raf-259, the peptide antagonists were preincubated with immobilized His-14-3-3ζ before adding [^35S]-labeled ASK1. After washing, 14-3-3-bound ASK1 was quantified by PhosphorImager. The percentage of ASK1 bound to 14-3-3 relative to peptide-free samples is plotted against increasing concentration of the test peptides (FIG. 1).

COS-7 cells [4] = assay: DNA content (sub G0) by propidium iodide flow cytometry; type: cell-based; conditions: for cell death (fraction of cells with sub G0 DNA content): 24 hours after transfection, FIG. 5
Protocol: The two acidic residues of R18 (Asp and Glu) which are involved in coordinating the basic cluster of 14-3-3 were changed to lysine. This peptide is not expected to bind 14-3-3, but it could retain interaction with other cellular partners if they do exist. Cos-7 cells were cotransfected with a farnesylated (EGFP[)] marker along with EYFP, EYFP-R18, or EYFP-R18 (D12K,E14K). After 24 hours, cells were fixed in ethanol and DNA was stained with propidium iodide. EGFP and PI signal intensities were measured on a FACScan flow cytometer (Becton Dickinson), and transfected cells were placed in various phases of the cell cycle based on their DNA content.
In yet another assay, (FIG. 8c) Cos-7 cells were transfected with EYFP or EYFP-difopein as indicated, and cell death was determined as in FIG. 5. Internucleosomal DNA cleavage, which is a commonly used marker of apoptosis, produces small fragments that can diffuse out of cells during ethanol fixation resulting in decreased signals being seen on staining for DNA (Sub-G0 DNA content). Therefore, the appearance of cell containing sub G0 levels of DNA indicates apoptotic cell death.

caspase 3 = assay: Caspase 3 activity in cell lysates (pNA release from Ac-DEVD-pNA); type: cell-based; conditions: FIG. 10a
Protocol: Cos-7 cells were lysed 12 hours after transfection with various amounts of DNA coding for EYFP-difopein. Equal amounts of lysates were assayed for the ability to liberate p-nitroaniline (pNA) from the caspase 3 substrate Ac-DEVD-pNA. […] In another study, Cos-7 cells were assayed as in FIG. 5, except that they were treated with 50 μM of the pan-caspase inhibitor zVAD-fink or vehicle immediately prior to transfection (FIG. 10b).

14-3-3 = conditions: phosphorylation-independent interaction; cited from earlier work
[5] = tested on: HeLa cervical cancer cells; assay: Cisplatin-induced cell death with EYFP-difopein expression; type: cell-based; conditions: 50 μM cisplatin for 24 hours, FIG. 11b
Protocol: as §1

14-3-3ζ/Raf-1 = molecular target: T3, 14-3-3ζ/Raf-1 (Bos taurus, UniProt P63103); assay: Co-immunoprecipitation of FLAG-14-3-3ζ and endogenous Raf-1 in transfected HEK293 cells; type: cell-based; conditions: FIG. 3
T3 sequence (P63103 1-245): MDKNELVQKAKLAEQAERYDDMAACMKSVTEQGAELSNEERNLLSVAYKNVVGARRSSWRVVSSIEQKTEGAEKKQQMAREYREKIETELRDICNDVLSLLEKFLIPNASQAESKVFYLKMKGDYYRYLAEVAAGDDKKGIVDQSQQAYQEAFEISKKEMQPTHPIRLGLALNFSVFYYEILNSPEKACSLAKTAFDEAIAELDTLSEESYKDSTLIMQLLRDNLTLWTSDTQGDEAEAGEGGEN
From the text: Difopein is a 62 amino acid polypeptide having 14-3-3 antagonist activity. The amino acid sequence of difopein is shown in SEQ ID NO:2 and comprises two R18 monomers (amino acids 6-25 and 37-56 of SEQ ID NO:2) separated by non-repeat linker sequences (amino acids 26-36 of SEQ ID NO:2). […] Specifically, HEK293 cells were transfected with DNA coding for FLAG-tagged 14-3-3ζ and either EYFP or EYFP-difopein as indicated. 14-3-3 was immunoprecipitated using anti-FLAG (M2; Sigma Chemical Co.). In the presence of EYFP, 14-3-3ζ was able to co-precipitate endogenous Raf-1. […] See also, Masters et al. (2001) Journal of Biological Chemistry 276: 45193-45200, herein incorporated by reference.

COS-7 cells [6] = assay: Viability by microscopic examination of morphology of X-gal stained transfected cells; type: cell-based; conditions: about 24 hours post transfection; FIG. 8b
Protocol: In another assay, Cos-7 cells were cotransfected with a lacZ marker in addition to any EYFP-difopein fusion, EYFP alone, or empty vector. Approximately 24 hours post transfection, cells were fixed and transfected cells were identified by staining with X-gal. Viability of the transfected cells was determined by microscopic examination of cell morphology: live cells were flat, while dead cells were rounded up.

PHCVPRDLSWLDLEANMCLP [R18]
competition with Bad derived peptide for 14-3-3 binding (14-3-3ζ dimer): competes with a Bad derived peptide for 14-3-3 binding
enhancement of cisplatin-induced cell death (COS-7 cells [1]): enhance the ability of an antineoplastic drug to kill cells
cell viability (β-gal activity) (COS-7 cells [2]): drastically decreased the population of viable cells
specificity for 14-3-3 proteins (14-3-3 proteins): high specificity
Kd (14-3-3 proteins; different isoforms of 14-3-3, similar affinity): 0.08 µM
annexin V phenotype (COS-7 cells [3]): annexin V-positive phenotype
inhibitory effect on 14-3-3ζ/ASK1 compared with pS-Raf-259 (14-3-3ζ/ASK1): stronger inhibitory affect
inhibition of the interaction of 14-3-3ζ with ASK1 (14-3-3ζ/ASK1; peptide preincubated with immobilized His-14-3-3ζ): potent inhibitory affect
cell death (fraction of cells with sub G0 DNA content) (COS-7 cells [4]): increase in the fraction of cells containing less than normal amounts of DNA

R18 (D12K, E14K): R18 with the two acidic residues (Asp and Glu) that coordinate the basic cluster of 14-3-3 changed to lysine (PHCVPRDLSWLKLKANMCLP; left off: large carriers)
cell death (fraction of cells with sub G0 DNA content) (COS-7 cells [4]): unable to induce cell death

Ac-DEVD-CHO [reference compound]
block of EYFP-difopein induced pNA release (caspase 3; Cos-7 lysates): completely blocked

Pseudomonas aeruginosa exoenzyme S: exoenzyme S from Pseudomonas aeruginosa, a phosphorylation-independent 14-3-3 ligand
affinity for the amphipathic groove of 14-3-3 (14-3-3): high affinity

B1: difopein: 62 amino acid polypeptide comprising two R18 monomers separated by a non-repeat linker sequence (protein)
chain: SADGAPHCVPRDLSWLDLEANMCLPGAAGLDSADGAPHCVPRDLSWLDLEANMCLPGAAGLE
modifications: difopein polypeptide sequence
cell viability (β-gal activity) (COS-7 cells [2]): decreased β-gal activity
enhancement of cisplatin-induced cell death [5]: enhance the ability of an antineoplastic drug to kill cells
binding to 14-3-3 in vivo (14-3-3ζ/Raf-1): can bind 14-3-3 in vivo
cell death compared with monomeric R18 (COS-7 cells [4]; EYFP-tagged constructs, FIG. 7): dramatically enhanced the cell death
effect on the cell cycle (DNA content distribution, sub G0 cells excluded) (COS-7 cells [4]; FIG. 8c, not shown): does not disrupt the cell cycle
sensitivity of induced cell death to constitutively active Akt (COS-7 cells [4]; co-expression of constitutively active Akt, FIG. 9): relatively insensitive to Akt expression

B2: EYFP-difopein: EYFP-difopein fusion expressed from transfected DNA (protein)
chain: SADGAPHCVPRDLSWLDLEANMCLPGAAGLDSADGAPHCVPRDLSWLDLEANMCLPGAAGLE
modifications: left off: large carriers
notes: EYFP-difopein fusion expressed from transfected DNA
pNA release from caspase 3 substrate Ac-DEVD-pNA (caspase 3; Cos-7 lysates 12 hours after transfection): dose dependent increase in pNA release
reduction of the live cell population (COS-7 cells [6]): about one-half
co-precipitation of endogenous Raf-1 with 14-3-3ζ (14-3-3ζ/Raf-1; anti-FLAG immunoprecipitation): blocked co-precipitation of Raf-1

Source: patent US7335635B2, “14-3-3 binding molecules as sensitizers for anticancer therapies” (Emory University, priority 2001, dated 2008)
